Results reported in patent US20140350273A1, “PEDIATRIC USES OF CABAZITAXEL” (AVENTIS PHARMA S.A., priority 2012, published 2014).
Read-outs that look alike come from different tables or passages of the source.

Tested on: human Ewing's sarcoma SK-ES-1
Type: in vivo
Parameters: Tumor volume changes from baseline: Median (nMad): unit not given here
Protocol: This efficacy may be quantified, for example, as changes in tumor volume for each treated (T) and control (C) group, which are calculated for each animal and each day by subtracting the tumor volume on the day of first treatment (staging day) from the tumor volume on the specified observation day. This allows calculating the tumor growth inhibition: ΔT/ΔC=(median delta T/median delta C)×100. Individual tumor volume changes from baseline are thereafter analyzed by a non-parametric two-way ANOVA-TYPE (with factors: group and repeated days) followed by a post-hoc contrasts analysis, with Bonferroni-Holm adjustment for multiplicity, comparing all treated groups to the control group. […] A probability less than 5% (p<0.05) was considered as significant.
Based on the National Cancer Institute (NCl) standards, a ΔT/ΔC≦40% is the minimal level required to declare activity.
The tumor doubling time (in days; Td) was estimated from the plot of the log linear growth of the control group tumors in exponential growth (100 to 1000 mm^3 range) [T. H. Corbett et al., Cancer, 40: 2660-2680 (1977); F. M. Schabel et al., Cancer Drug Development, Part B, Methods in Cancer Research, 17: 3-51, New York, Academic Press Inc. (1979)].
This efficacy may also be quantified by the number of tumor regressions observed after therapy. Individual mice reporting a tumor volume ≦50% of the Day 0 measurement for two consecutive measurements over a seven day period were considered partial responders (PR). Individual mice lacking palpable tumors (<4×4 mm^2 for two consecutive measurements over a seven day period) were classified as complete responders (CR); a CR that persisted until study completion was considered a tumor-free survivor (TFS).
The efficacy of cabazitaxel in comparison with docetaxel on pediatric solid tumors was determined experimentally in the following manner:
The animals subjected to the experiment are subcutaneously grafted unilaterally with approximately 30 mg of a tumor fragment on day 0. The animals are implanted with a human tumor xenografted in immunocompromized mice. Several days post tumor implantation, mice are randomized according to their body weight to the different groups of treatments and controls. The animals are observed every day. The different animal groups are weighed daily during treatment until the maximum weight loss is reached and subsequent full weight recovery has occurred. The groups are then weighed once or twice a week until the end of the trial.
The tumors are measured 1 to 5 times a week, depending on the tumor doubling time, until the tumor reaches approximately 1,000 mm^3, or until the animal dies (if this occurs before the tumor reaches 1,000 mm^3). The animals are necropsied immediately after euthanasia or death.
The selected tumor model was a human Ewing's sarcoma SK-ES-1, xenografted in SCID mice [Fogh J. New York: Plenum Press, 1975].
Cabazitaxel and docetaxel were weighed for each treatment and dissolved in ethanol. Treatment solutions were prepared first by mixing 1 volume of ethanolic stock solution and 1 volume of polysorbate 80, then by adding 18 volumes of glucose 5% in water.
The Td in days was estimated from the plot of the log linear growth of the control group tumors in exponential growth (100 to 1,000 mm^3 range) and the number of tumor regressions observed after therapy.
The following end points have been used: • Toxicity was declared at dosages inducing ≧20% body weight loss or ≧10% drug death; • Relative tumor growth inhibition was determined on day 22 post tumor implantation when the median tumor size in the control group was 456 mm^3; • Antitumor efficacy was determined by calculating the ΔT/ΔC value in percent, according to the above-mentioned formula; • Tumor regressions (as explained above); • Statistical analysis performed (as explained above).

[1] = 3.5 mg/kg per injection (total 7.0) IV days 15; 19
[2] = 3.5 mg/kg per injection (total 7.0) IV days 15; 19; listed as DOCETAXEL
[3] = 3.5 mg/kg per injection (total 7.0) IV days 15; 19; listed as docetaxel
[4] = 5.6 mg/kg per injection (total 11.2) IV days 15; 19
[5] = 5.6 mg/kg per injection (total 11.2) IV days 15; 19; listed as DOCETAXEL
[6] = 9.0 mg/kg per injection (total 18) IV days 15; 19
[7] = 9.0 mg/kg per injection (total 18) IV days 15; 19; listed as DOCETAXEL
[8] = 14.5 mg/kg per injection (total 29) IV days 15; 19
[9] = 14.5 mg/kg per injection (total 29) IV days 15; 19; listed as DOCETAXEL
[10] = 14.5 mg/kg per injection (total 29) IV days 15; 19; listed as docetaxel

`CC(=O)O[C@@]12CO[C@@H]1C[C@H](O)[C@@]1(C)C(=O)[C@H](O)C3=C(C)[C@@H](OC(=O)[C@H](O)[C@@H](NC(=O)OC(C)(C)C)c4ccccc4)C[C@@](O)([C@@H](OC(=O)c4ccccc4)[C@H]21)C3(C)C` [Docetaxel, docetaxel] was tested, and the “Average body weight change in % per mouse at nadir” value [1] was −2.1%, the Drug death [1] was 0/7 and the “Regressions Complete” value [1] was 0/7. For the same molecule, the “Regressions Partial” value [1] was 0/7, the “Tumor free survivors at day 120” value [1] was 0/7 and the day of nadir [1] was 16 days. For the same molecule, the Biological interpretation [2] was “Inactive”, the “ΔT/ΔC in % (day 22)” value [2] was 72% and the Biological interpretation [3] was “inactive”. For the same molecule, the “ΔT/ΔC in % (day 22)” value [3] was > 40%, the “Tumor volume changes from baseline: Median (nMad)” value (from here on “Tumor volume changes from baseline”) (3.5 mg/kg, day 19) was 52 and the “Tumor volume changes from baseline” value (3.5 mg/kg, day 22) was 136. The “Tumor volume changes from baseline” value (3.5 mg/kg, day 25) was 712, the “Tumor volume changes from baseline” value (3.5 mg/kg, day 28) was 900 and the “Tumor volume changes from baseline” value (3.5 mg/kg; day 19) was 52 (89). For the same molecule, the “Tumor volume changes from baseline” value (3.5 mg/kg; day 22) was 136, the “Tumor volume changes from baseline” value (3.5 mg/kg; day 25) was 712 (29.7) and the “Tumor volume changes from baseline” value (3.5 mg/kg; day 28) was 900. The “Average body weight change in % per mouse at nadir” value [4] was −5.4%, the Drug death [4] was 0/7 and the “Regressions Complete” value [4] was 0/7. For the same molecule, the “Regressions Partial” value [4] was 1/7, the “Tumor free survivors at day 120” value [4] was 0/7 and the day of nadir [4] was 16 days. For the same molecule, the Biological interpretation [5] was “Highly Active”, the “ΔT/ΔC in % (day 22)” value [5] was <0% and the Biological interpretation (5.6 mg/kg per injection (total 11.2) IV days 15; 19; listed as docetaxel) was “highly active”. For the same molecule, the “Tumor volume changes from baseline” value (5.6 mg/kg, day 19) was 0, the “Tumor volume changes from baseline” value (5.6 mg/kg, day 22) was −36 and the “Tumor volume changes from baseline” value (5.6 mg/kg, day 25) was 168. For the same molecule, the “Tumor volume changes from baseline” value (5.6 mg/kg, day 28) was 342, the “Tumor volume changes from baseline” value (5.6 mg/kg; day 19) was 0 (106.7) and the “Tumor volume changes from baseline” value (5.6 mg/kg; day 22) was −36 (60.8). For the same molecule, the “Tumor volume changes from baseline” value (5.6 mg/kg; day 25) was 168 (80.1), the “Tumor volume changes from baseline” value (5.6 mg/kg; day 28) was 342 (89) and the “Tumor volume changes from baseline” value (5.6 mg/kg; day 32) was 480. The “Tumor volume changes from baseline” value (5.6 mg/kg; day 35) was 2005, the “Average body weight change in % per mouse at nadir” value [6] was −6.6% and the Drug death [6] was 0/7. The “Regressions Complete” value [6] was 0/7, the “Regressions Partial” value [6] was 6/7 and the “Tumor free survivors at day 120” value [6] was 0/7. For the same molecule, the day of nadir [6] was 23 days, the Biological interpretation [7] was “Highly Active” and the “ΔT/ΔC in % (day 22)” value [7] was <0%. The Biological interpretation (9.0 mg/kg per injection (total 18) IV days 15; 19; listed as docetaxel) was “highly active”, the “Tumor volume changes from baseline” value (9 mg/kg, day 19) was 0 and the “Tumor volume changes from baseline” value (9 mg/kg, day 22) was −101. For the same molecule, the “Tumor volume changes from baseline” value (9 mg/kg, day 25) was −126, the “Tumor volume changes from baseline” value (9 mg/kg, day 28) was −126 and the “Tumor volume changes from baseline” value (9 mg/kg; day 19) was 0 (37.1). The “Tumor volume changes from baseline” value (9 mg/kg; day 22) was −101, the “Tumor volume changes from baseline” value (9 mg/kg; day 25) was −126 and the “Tumor volume changes from baseline” value (9 mg/kg; day 28) was −126 (46). For the same molecule, the “Tumor volume changes from baseline” value (9 mg/kg; day 32) was −49, the “Tumor volume changes from baseline” value (9 mg/kg; day 35) was 201 and the “Average body weight change in % per mouse at nadir” value [8] was −10.5%. For the same molecule, the Drug death [8] was 0/7, the “Regressions Complete” value [8] was 3/7 and the “Regressions Partial” value [8] was 7/7. The day of nadir [8] was 27 days, the Biological interpretation [9] was “Highly Active” and the “Tumor free survivors at day 120” value [9] was 0/7. The “ΔT/ΔC in % (day 22)” value [9] was <0%, the Biological interpretation [10] was “highly active” and the “Tumor free survivors at day 120” value [10] was “no TFS”. For the same molecule, the “Tumor volume changes from baseline” value (14.5 mg/kg, day 19) was −18, the “Tumor volume changes from baseline” value (14.5 mg/kg, day 22) was −156 and the “Tumor volume changes from baseline” value (14.5 mg/kg, day 25) was −173. For the same molecule, the “Tumor volume changes from baseline” value (14.5 mg/kg, day 28) was −164, the “Tumor volume changes from baseline” value (14.5 mg/kg; day 19) was −18 (77.1) and the “Tumor volume changes from baseline” value (14.5 mg/kg; day 22) was −156. The “Tumor volume changes from baseline” value (14.5 mg/kg; day 25) was −173, the “Tumor volume changes from baseline” value (14.5 mg/kg; day 28) was −164 and the “Tumor volume changes from baseline” value (14.5 mg/kg; day 32) was −162. For the same molecule, the “Tumor volume changes from baseline” value (14.5 mg/kg; day 35) was −162, the “Tumor volume changes from baseline” value (14.5 mg/kg; day 39) was 290 and the “Tumor volume changes from baseline” value (14.5 mg/kg; day 41) was 274. For the same molecule, the “Tumor volume changes from baseline” value (14.5 mg/kg; day 43) was 427.5 and the “Tumor volume changes from baseline” value (14.5 mg/kg; day 45) was 574.
